Target: T1, FnYqdH (butanol dehydrogenase YqdH) (Fusobacterium nucleatum, UniProt Q8R612)
T1 construct: gene FN1415; recombinant from pPRO-EX-HTA in E. coli BL21 (DE3); His6 tag removed with TEV protease
T1 sequence (Q8R612 1-385): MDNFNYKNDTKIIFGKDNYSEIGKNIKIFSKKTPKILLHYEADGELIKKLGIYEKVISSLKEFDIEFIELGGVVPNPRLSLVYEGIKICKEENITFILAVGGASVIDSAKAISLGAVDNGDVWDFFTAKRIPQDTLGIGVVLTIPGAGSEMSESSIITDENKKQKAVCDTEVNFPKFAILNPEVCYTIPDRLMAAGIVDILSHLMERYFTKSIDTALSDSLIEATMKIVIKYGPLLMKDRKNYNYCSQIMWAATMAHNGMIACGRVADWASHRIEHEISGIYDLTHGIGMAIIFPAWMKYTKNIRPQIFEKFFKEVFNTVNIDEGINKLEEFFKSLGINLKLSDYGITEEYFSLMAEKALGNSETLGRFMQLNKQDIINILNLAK
Assay: X-ray crystallography, crystal soaked with NADH ([…] A)
Assay type: binding
Conditions: soak 1 min in 10 mM NADH, 2 mM Co2+, 25% glycerol; crystals grown in 0.1 M HEPES pH 7.5, 1.8 M ammonium phosphate; only the ADP part is seen and modelled as ADP, nicotinamide part disordered

## NC(=O)C1=CN([C@@H]2O[C@H](COP(=O)(O)OP(=O)(O)OC[C@H]3O[C@@H](n4cnc5c(N)ncnc54)[C@H](O)[C@@H]3O)[C@@H](O)[C@H]2O)C=CC1 [NADH]
  X-ray crystallography, crystal soaked with NADH (2.70 A): presence of the adenine and diphosphate groups of the NADH molecule

Reference: paper PMC12711018, “Structural flexibility of the nicotinamide group of NADH in butanol dehydrogenase YqdH from Fusobacterium nucleatum” (PLOS One, 2025)
